1 molecule from US20060263294A1, “Tumor targeting agents and uses thereof” (KARYON OY, priority 2002, published 2006) can be followed below.

SMILES strings stand for the structures. Bridge positions count the residues as written; N and C are the ends. Peptide text beside a SMILES is read from it. * marks the point of attachment. X1 = COc1cccc2c1C(=O)c1c(O)c3c(c(O)c1C2=O)C[C@@](C)(/C(CO)=N/OCC(=O)*)C[C@@H]3OC1CC(N)C(O)C(C)O1

In this assay the test system is C8161M/T1 melanoma cells tumours. Briefly: Therapeutic effect of targeting agent comprising cytotoxic effector unit on melanoma tumors. Type of assay: in vivo, Athymic-nu mice. The settings on record: 1,43 mg/kg i.v. twice a week, five doses; s.c. C8161M/T1 melanoma; FIG. 1. The protocol:
1 million C8161M/T1 melanoma cells were injected subcutaneously into flank of eight Athymic-nu mice and tumours were allowed to grow for one week. The mice were then divided into three groups those received the following treatments: • Group DMEM: two mice, DMEM only • Group Dox: two mice, 1,43 mg/kg doxorubicin dissolved in DMEM • Group pept+dox: four mice, 1,43 mg/kg Dxrb-Aoa-DLRSK (doxorubicin linked to targeting mofif LRS) dissolved in DMEM (dose equimolar to Group Dox)
Treatments were administered i.v. twice a week (Tuesdays and Fridays), total of five doses were injected. Tumours were measured with a calliper in two perpendicular directions on each injection day and on the day the animals were sacrificed. Tumour volume was calculated by the formula for ellipsoid: Volume=(length×width^2)×0.5

Consider `COc1cccc2c1C(=O)c1c(O)c3c(c(O)c1C2=O)C[C@@](C)(/C(CO)=N/OCC(=O)N[C@H]1CC(=O)NCCCC[C@@H](C(=O)O)NC(=O)[C@H](CO)NC(=O)[C@H](CCCNC(=N)N)NC(=O)[C@H](CC(C)C)NC1=O)C[C@@H]3OC1CC(N)C(O)C(C)O1` (some centres unmarked) [Dxrb-Aoa-DLRSK] (X1-DLRSK-OH; lactam 1-5), for which the “selective targeting to melanoma tumor in vivo” value is given as “selectively targets to melanoma tumor in vivo” and the “therapeutic effect (tumour volume) compared with doxorubicin” value is on record as “significantly increases the therapeutic effect of doxorubicin”.
